Reference: patent US7585846B2, “Compounds for delivering amino acids or peptides with antioxidant activity into mitochondria and use thereof” (University of Rochester, priority 2003, dated 2009)

How the values were obtained:
spinal cord neurons = experiment: Oxidative stress-induced apoptosis (condensed and fragmented nuclei, Hoechst staining); assay type: cell-based
From the text: FIG. 3B is a control for FIG. 3A. FIG. 3C is a bar diagram summary of the percent of neurons with condensed fragmented nuclei after H2O2 treatment. The concentrations of H2O2 used are shown on the x-axis.
Central to the proposed therapeutic intervention is the belief that SCN undergo apoptosis and possibly necrosis under oxidative stress. […] Image pairs, obtained from H2O2-treated (FIG. 3A) and non-treated (FIG. 3B) SCN, are shown in both phase contrast and after Hoechst nuclear staining. Many of the neurons in FIG. 3A show condensed and fragmented nuclei (arrows) indicative of apoptotic cells. In contrast, control neurons in FIG. 3B show predominantly diffuse nuclear staining (arrows). […] This percentage increased to […] for 500 μM H2O2. […] These changes were concentration-dependent and increased by mtGSH depletion. […] In contrast, immunoreactivity to cytochrome C oxidase (COX), a marker in the inner mitochondrial membrane remains independent of the mitochondrial insults by H2O2 (FIG. 3E). The differential staining between Cyt C and COX affords a secondary method to assess whether a given neuron has undergone mitochondrial permeability transition (MPT).

[1] = system: cultured neonatal rat ventricular myocytes; experiment: H2O2-induced depolarization of mitochondrial membrane potential (TMRM fluorescence) in myocytes; assay type: cell-based; conditions: for onset of H2O2-induced depolarization and loss of TMRM fluorescence: pretreatment 50 or 100 μM for 30 minutes
Experimental: TMRM is a lipophilic cation that partitions selectively into the negatively charged mitochondria Neonatal cultured myocytes (6 days in culture) were loaded with 10 nM TMRM for 60 minutes at 37° C. The myocytes were pretreated with either 50 or 100 μM Mito GSH or 100 μM non-targeted GSH for 30 minutes and then washed to remove the antioxidants from the solution in which myocytes were suspended. As a control, myocytes were not pretreated with any drug. TMRM was excited at 555 nm and fluorescence emission was detected at 590 nm. Fluorescence images were taken every 2 minutes. At the arrow, myocytes were subjected to oxidative stress by adding 50 μM H2O2. Plots were normalized to baseline, and are shown as F/Fo, where F is the emitted fluorescence at any given time and Fo is the baseline fluorescence before addition of H2O2. […] The traces were drawn from the mean values of 7-10 experiments.
TMRM was used as an indicator of mitochondrial membrane potential. The myocytes were pretreated with 50 μM Mito GSH for 30 minutes and then washed to remove the antioxidant from the solution in which myocytes were suspended. In control, myocytes were not pretreated with any drug. TMRM was excited at 555 nm and fluorescence emission was detected at 590 nm. Fluorescence images were taken every 2 minutes to avoid photobleaching and phototoxicity. Myocytes were subjected to oxidative stress by adding 50 μM H2O2.

brain striatal neurons = conditions: pretreatment 100 μM; 100 μM NMDA; DCF fluorescence
Experimental: Intracellular reactive oxygen species (ROS) were measured by using the redox-sensitive dye, dichlorohydrofluorescein (H2DCFDA). […] Cultured striatal neurons (10 days in culture) were loaded with 50 nM H2DCFDA for 25 min. The neurons were excited at 488 nm and the image was acquired at 515 nm wavelength. ROS production was induced by treating the neurons with 100 μM NMDA. An increase in DCFDA fluorescence by NMDA treatment reflected an increased production of ROS or oxidative stress. […] Plots were normalized to baseline, and are shown as F/Fo, where F is the emitted fluorescence at any given time and Fo is the baseline fluorescence before addition of NMDA. […] The traces were drawn from the mean values of 3 experiments.

Rat heart mitochondria [2] = experiment: Mitochondrial membrane potential by TPP+ sensitive electrode under rotenone/t-BuOOH oxidative stress; assay type: biochemical; conditions: pretreatment 5 mM at 4° C. for 30 minutes; 5 μM rotenone and 100 μM t-BuOOH; TPP+ signal
Experimental: Mitochondrial membrane potential was measured by a TPP+ (tetraphenyl phosphonium) sensitive electrode. Rat heart mitochondria (1 mg protein/100 μl) were transferred to a beaker (at the first arrow) containing 0.9 ml of 150 mM KCl, 5 mM Hepes, 6 μM TPP+ and 5 mM succinate buffer. […] At the second arrow, mitochondria were subjected to oxidative stress by adding 5 μM rotenone (Complex I inhibitor) and 100 μM tert-butylhydroperoxide (t-BuOOH) to the buffer.

Rat heart mitochondria [3] = experiment: Mitochondrial membrane potential by safranine fluorescence under rotenone/t-BuOOH oxidative stress; assay type: biochemical; conditions: pretreatment 5 mM for 30 minutes; 5 μM rotenone and 100 μM t-BuOOH
Experimental: Mitochondrial membrane potential was measured by safranine. Safranine is a positively charged dye that accumulates in mitochondria on establishment of an electrical potential across the mitochondrial inner membrane. However, its fluorescence is quenched by its accumulation in mitochondria in response to mitochondrial membrane potential. Rat heart mitochondria (0.2 mg protein/200 μl) were transferred to a well containing 0.3 ml of 150 mM KCl, 5 mM Hepes, 15 μM safranine, 5 mM succinate buffer, 5 μM rotenone and 100 μM t-BuOOH. The mitochondria were placed in a multiplate reader. Fluorescence measurements were made with excitation and emission wavelengths of 485 and 585 nm respectively. Rotenone and t-BuOOH induced mitochondrial membrane potential resulting in a release of intramitochondrial safranine indicated by an increase in fluorescence signal.

[4] = system: Male Sprague-Dawley rat hearts; conditions: 50 μM for 10 min prior to ischemia
Experimental: Male Sprague-Dawley rat hearts were retrograde (Langendorff) perfused with oxygenated Krebs Henseleit (KH) buffer in constant flow mode (12 mL/min/gram wet weight). Hearts were not electrically stimulated, and beat spontaneously at approximately 280 bpm. Left-ventricular pressure (LVP) was measured by a balloon inserted in the left ventricle, linked to a pressure transducer with digital recording at 500 Hz. […] Following an equilibration period of approximately 25 mm., global normothermic ischemia was imposed for 25 mm., followed by reperfusion for 30 mm as indicated by the arrows on the traces. For mNAC treatment, the drug was dissolved in KH buffer and infused via a port just above the aortic perfusion cannula, at a final concentration of 50 μM, for 10 min. prior to the onset of ischemia.
The ability of mitochondrially targeted N-acetylcysteine (mNAC) to improve post-ischemic recovery in rat heart was assessed. Male Sprague-Dawley rat hearts were retrograde (Langendorff) perfused with oxygenated Krebs Henseleit (KH) buffer in constant flow mode (12 mL/min/gram wet weight). Hearts were not electrically stimulated, and beat spontaneously at approximately 280 beats per minute. Left-ventricular pressure (LVP) was measured by a balloon inserted in the left ventricle, linked to a pressure transducer with digital recording at 500 Hz. […]

C=CC(O)CC(=O)O (stereo not shown) [3-HP, 3-hydroxy-4-pentenoate]
cells with condensed and fragmented nuclei (spinal cord neurons; mtGSH depletion by 3-HP prior to 250 μM H2O2 treatment): 70%

N[C@@H](CCC(=O)N[C@@H](CS)C(=O)NCC(=O)O)C(=O)O [GSH, glutathione, reference compound]
time for onset of H2O2-induced depolarization (versus control) ([1]; pretreatment 100 μM): did not significantly increase the time for onset of H2O2-induced depolarization

OO [H2O2]
neurons with condensed and fragmented nuclei (spinal cord neurons; 250 μM H2O2): ~42%

C[N+](C)(C)CCOC(=O)CNC(=O)[C@H](CS)NC(=O)CC[C@H](N)C(=O)O.[Cl-] [Mito GSH, Glutathione choline ester chloride]
NMDA-induced increase in ROS production (brain striatal neurons): prevented NMDA-induced increase in ROS production
oxidative stress-induced depolarization of mitochondrial membrane potential (Rat heart mitochondria [2]): prevented the oxidative stress-induced depolarization significantly
time for onset of H2O2-induced depolarization (versus control) ([1]; pretreatment 50 μM): significantly enhanced the time for onset of H2O2-induced depolarization
time to which TMRM fluorescence persisted after H2O2 treatment ([1]; pretreatment 50 μM for 30 minutes, 50 μM H2O2, control invisible at 32 minutes): 50 min
time for onset of H2O2-induced depolarization (versus control) ([1]; pretreatment 100 μM): significantly enhanced the time for onset of H2O2-induced depolarization
Time for onset of H2O2-induced depolarization ([1]; pretreatment 100 μM, control 25±3.2 min): 53 ± 3.6 min
onset of H2O2-induced depolarization and loss of TMRM fluorescence ([1]; 50 μM H2O2): delayed onset of H2O2-induced depolarization and loss of TMRM fluorescence

CC(=O)N[C@@H](CSC(C)=O)C(=O)OCC[N+](C)(C)C [N,S-acetyl cysteine choline ester, S,N-acetyl-L-cysteine choline ester]
release of intramitochondrial safranine (depolarization of mitochondrial membrane potential) (Rat heart mitochondria [3]): diminished the release of intramitochondrial safaranine

C[N+](C)(C)CCOC(=O)[C@@H](N)CS.[Cl-] [cysteine choline ester, [2-(2-Amino-3-mercapto-L-propionyloxy)-ethyl]-trimethyl-ammonium chloride]
oxidative stress-induced depolarization of mitochondrial membrane potential (Rat heart mitochondria [2]): prevented the oxidative stress-induced depolarization significantly

CC(=O)N[C@@H](CS)C(=O)OCC[N+](C)(C)C [mNAC, N-acetyl-L-cysteine choline ester]
onset of ischemic contracture [4]: appeared to delay the onset of ischemic contracture
overall recovery of LV developed pressure (systolic minus diastolic) ([4]; 25 min global ischemia, 30 min reperfusion, control 4.1%): 15.7%
oxidative stress-induced depolarization of mitochondrial membrane potential (Rat heart mitochondria [2]): prevented the oxidative stress-induced depolarization significantly
onset of H2O2-induced depolarization and loss of TMRM fluorescence ([1]; 50 μM H2O2): delayed onset of H2O2-induced depolarization and loss of fluorescence
